The term inhibition denotes the relative decrease from the control value, in per cent.

The test system of data set [1] is primary rat microglia. As to the kind of experiment: Cell toxicity (dead cells, size <150 μm2) in coated fibrin (cFib) assay.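 Further: share of dead cells sized under 150 µm2 at 10 µM in fibrin-stimulated microglia HTS.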 As to conditions: primary microglia HTS, 10 μM, fibrin assay, cell size <150 μm^2 as marker of toxicity.
In data set [2] the test system is LPS-induced microglia activation. Put plainly: Image-based assay of LPS-induced microglia activation (HTS and dose response). The conditions noted are these: primary microglia HTS, 10 μM, LPS-stimulated, cell size >800 μm^2 as marker of activation; for inhibition at 10 µM: Rattus norvegicus, Microglia, read-out: LPS % inhibition. It counts as cell-based, rat.
Data set [3] relates to primary rat microglia. As to the kind of experiment: Cell toxicity (dead cells, size <150 μm2) in LPS assay. The conditions noted are these: primary microglia HTS, 10 μM, LPS assay, cell size <150 μm^2 as marker of toxicity.
Data set [4] concerns fibrin-induced microglia activation. As to the kind of experiment: Image-based assay of fibrin-induced microglia activation (HTS and dose response). In kind it is cell-based, rat. As to conditions: primary microglia HTS, 10 μM, fibrin-stimulated, cell size >800 μm^2 as marker of activation; for inhibition at 10 µM: Rattus norvegicus, Microglia, read-out: Fibrin % inhibition.
The test system of data set [5] is fibrin- and LPS-induced microglia activation. As to the kind of experiment: cells. The conditions noted are these: HTS of 1907 compounds, quadrant by fibrin and LPS inhibition. It counts as cell-based, rat.

Structures are written as SMILES. Where a name gives a salt, the structure may show the parent alone.

For the compound `C[N+]1(C)[C@@H]2C[C@@H](OC(=O)C(O)(c3cccs3)c3cccs3)C[C@H]1[C@@H]1O[C@@H]12` [Tiotropium], in the data set on primary rat microglia [1], the “Fibrin % cell toxicity” value stood at 0%. Also, the values for the inhibition at 10 µM in data set [2] and in data set [4] were -1% and -32%, respectively. In the data set on primary rat microglia [3], the “LPS % cell toxicity” value is on record as 0%. The “Quadrant (FIG. 5b)” value in data set [5] is “Q4”.
Regarding `O=C(O)Cc1cc(I)c(Oc2ccc(O)c(I)c2)c(I)c1` [Tiratricol], the “Fibrin % cell toxicity” value with primary rat microglia [1] was 1%. Besides, the inhibition at 10 µM in data set [2] is 13%; in data set [4], -51%. In addition, in the data set on primary rat microglia [3], the “LPS % cell toxicity” value is 0%. The “Quadrant (FIG. 5b)” value in data set [5] is “Q4”.
The matching figures for `NC[C@H]1O[C@H](O[C@H]2[C@H](O)[C@@H](O[C@H]3O[C@H](CO)[C@@H](O)[C@H](N)[C@H]3O)[C@H](N)C[C@@H]2N)[C@H](N)C[C@@H]1O` [Tobramycin]: 1%, 24%, 1%, 0% and “Q4”.
The matching figures for `Cc1cccc(C)c1NC(=O)C(C)N` (centres unmarked) [Tocainide]: 1%, 0%, -25%, 0% and “Q4”.
With `CCOC(=O)NNc1nncc2ccccc12` [Todralazine Hydrochloride], the “Fibrin % cell toxicity” value in the data set with primary rat microglia [1] came to 1%. Further, the figures for the inhibition at 10 µM in data set [2] and in data set [4] were 19% and 0%, respectively. Moreover, the “LPS % cell toxicity” value in the data set with primary rat microglia [3] worked out at 0%. The “Quadrant (FIG. 5b)” value in data set [5] is reported as “Q4”.
In the case of `c1ccc(CC2=NCCN2)cc1` [Tolazoline, Priscoline], in the data set on primary rat microglia [1], the “Fibrin % cell toxicity” value worked out at 0%. Moreover, the LPS % inhibition in data set [2] was determined as 17%. The “LPS % cell toxicity” value in the data set with primary rat microglia [3] came to 0%. The Fibrin % inhibition in data set [4] was −90%. In data set [5], the “Quadrant (FIG. 5b)” value is “Q4”.
Regarding `Cc1cc2nc3ccc(N(C)C)cc3[s+]c2cc1N` [Tolonium Chloride], the “Fibrin % cell toxicity” value in the data set on primary rat microglia [1] is 1%. Besides, the inhibition at 10 µM was 43% in data set [2] and -4% in data set [4]. Further, the “LPS % cell toxicity” value in the data set with primary rat microglia [3] came out at 1%. Also, in data set [5], the “Quadrant (FIG. 5b)” value is “Q4”.
With `Cc1ccc(C(=O)C(C)CN2CCCCC2)cc1` (centres unmarked) [Tolperisone], in the data set with primary rat microglia [1], the “Fibrin % cell toxicity” value is listed as 1%. Besides, the inhibition at 10 µM in data set [2] is 11%; in data set [4] it was -7%. The “LPS % cell toxicity” value in the data set on primary rat microglia [3] is given as 0%. For the same compound, in data set [5], the “Quadrant (FIG. 5b)” value is reported as “Q4”.
As for `CC1(C)O[C@@H]2[C@@H](CO[C@@]3(COS(N)(=O)=O)OC(C)(C)O[C@@H]23)O1` [Topiramate], the “Fibrin % cell toxicity” value with primary rat microglia [1] is recorded as 1%. The results for the inhibition at 10 µM in data set [2] and in data set [4] were 5% and 4%, respectively. Also, the “LPS % cell toxicity” value with primary rat microglia [3] was 0%. Also, the “Quadrant (FIG. 5b)” value in data set [5] was “Q4”.
The matching figures for `Cc1cccc(Nc2ccncc2S(=O)(=O)NC(=O)NC(C)C)c1` [Torasemide]: 1%, 7%, -29%, 0% and “Q4”.
The matching figures for `COc1ccc(/C=C/C(=O)Nc2ccccc2C(=O)O)cc1OC` [Tranilast]: 0%, 22%, 35%, 0% and “Q4”.
The matching figures for `CC(C)OC(=O)CCC/C=C\C[C@@H]1[C@@H](/C=C/[C@@H](O)COc2cccc(C(F)(F)F)c2)[C@H](O)C[C@@H]1O` [Travoprost]: 1%, 15%, 4%, 0% and “Q4”.
Consider `CC(=O)OCC(COC(C)=O)OC(C)=O` [Triacetin], for which the “Fibrin % cell toxicity” value in the data set with primary rat microglia [1] is reported as 1%. Also, the inhibition at 10 µM in data set [2] was 15%; in data set [4], -32%. Further, the “LPS % cell toxicity” value in the data set with primary rat microglia [3] came to 0%. Further, the “Quadrant (FIG. 5b)” value in data set [5] was “Q4”.
The matching figures for `NS(=O)(=O)c1cc2c(cc1Cl)NC(C(Cl)Cl)NS2(=O)=O` (centres unmarked) [Trichlormethiazide]: 1%, 13%, 17%, 0% and “Q4”.
The matching figures for `Oc1cc(Cl)ccc1Oc1ccc(Cl)cc1Cl` [Triclosan]: 1%, 16%, -6%, 1% and “Q4”.
On to `C[C@]12CC[C@H]3[C@@H](CC[C@@]45O[C@@H]4C(O)=C(C#N)C[C@]35C)[C@@H]1CC[C@@H]2O` [Trilostane], for which the “Fibrin % cell toxicity” value in the data set with primary rat microglia [1] worked out at 0%. For the same compound, the inhibition at 10 µM in data set [2] was 11%; in data set [4] it was -24%. In addition, the “LPS % cell toxicity” value in the data set with primary rat microglia [3] is recorded as 0%. Moreover, the “Quadrant (FIG. 5b)” value in data set [5] is “Q4”.
`COc1ccc(CN2CCNCC2)c(OC)c1OC` [Trimetazidine]: in the data set on primary rat microglia [1], the “Fibrin % cell toxicity” value was determined as 1%. Besides, the inhibition at 10 µM in data set [2] is 1%; in data set [4], -18%. In the data set on primary rat microglia [3], the “LPS % cell toxicity” value worked out at 0%. Besides, in data set [5], the “Quadrant (FIG. 5b)” value was “Q4”.
Regarding `CN1C(=O)OC(C)(C)C1=O` [Trimethadione], the “Fibrin % cell toxicity” value in the data set on primary rat microglia [1] is listed as 1%. Besides, the figures for the inhibition at 10 µM in data set [2] and in data set [4] were 14% and -5%, respectively. In addition, the “LPS % cell toxicity” value with primary rat microglia [3] was 0%. Moreover, the “Quadrant (FIG. 5b)” value in data set [5] was “Q4”.
For `COc1cc(C(=O)NCc2ccc(OCCN(C)C)cc2)cc(OC)c1OC` [Trimethobenzamide], in that order: 1%, 17%, 16%, 0% and “Q4”.
For `COc1cc(C(=O)N2CCOCC2)cc(OC)c1OC` [Trimetozine], in that order: 1%, 12%, 2%, 0% and “Q4”.
With `Cc1cc2cc3c(C)cc(=O)oc3c(C)c2o1` [Trioxsalen], in the data set with primary rat microglia [1], the “Fibrin % cell toxicity” value was 1%. Further, the inhibition at 10 µM was 18% in data set [2] and -18% in data set [4]. Further, the “LPS % cell toxicity” value with primary rat microglia [3] came out at 0%. Besides, the “Quadrant (FIG. 5b)” value in data set [5] is “Q4”.
For `CN(C)CCN(Cc1ccccc1)c1ccccn1` [Tripelennamine], in that order: 1%, 25%, 14%, 0% and “Q4”.

The values are drawn from US20210330611A1, “THERAPY FOR NEUROLOGICAL DISEASES/DISORDERS” (priority 2020, published 2021).
